# Assay results as given in PMC3171627 (Bioorganic & medicinal chemistry letters, 2011).
# Experiments:
# [1] = biological target: CB1 (Homo sapiens, UniProt P21554); details: GTPγ[35S] assay; antagonist series; cited from earlier work
# [2] = system: CB2; details: read-out: CB2 functional activity EC50; GTPγ[35S] assay; antagonist series; cited from earlier work
# [3] = biological target: CB2 receptor (Mus musculus, UniProt P47936); assay: visualization of CB2 receptor binding by CD4+ T cells, confocal microscopy; assay type: cell-based; details: 5 µM, on ice for 30 minutes, T cells from peripheral lymph nodes of BALB/C mice
# Chain of CB2 receptor (P47936 whole entry): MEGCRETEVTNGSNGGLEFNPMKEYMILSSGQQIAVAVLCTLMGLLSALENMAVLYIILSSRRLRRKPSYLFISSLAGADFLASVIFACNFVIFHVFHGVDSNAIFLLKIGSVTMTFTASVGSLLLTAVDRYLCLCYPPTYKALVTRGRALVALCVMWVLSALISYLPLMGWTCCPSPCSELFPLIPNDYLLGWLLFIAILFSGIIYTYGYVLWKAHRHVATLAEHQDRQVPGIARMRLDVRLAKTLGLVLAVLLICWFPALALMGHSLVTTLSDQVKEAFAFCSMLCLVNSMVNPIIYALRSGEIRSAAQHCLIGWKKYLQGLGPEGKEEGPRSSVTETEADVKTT
# Chain of CB1 (P21554 whole entry, species assumed): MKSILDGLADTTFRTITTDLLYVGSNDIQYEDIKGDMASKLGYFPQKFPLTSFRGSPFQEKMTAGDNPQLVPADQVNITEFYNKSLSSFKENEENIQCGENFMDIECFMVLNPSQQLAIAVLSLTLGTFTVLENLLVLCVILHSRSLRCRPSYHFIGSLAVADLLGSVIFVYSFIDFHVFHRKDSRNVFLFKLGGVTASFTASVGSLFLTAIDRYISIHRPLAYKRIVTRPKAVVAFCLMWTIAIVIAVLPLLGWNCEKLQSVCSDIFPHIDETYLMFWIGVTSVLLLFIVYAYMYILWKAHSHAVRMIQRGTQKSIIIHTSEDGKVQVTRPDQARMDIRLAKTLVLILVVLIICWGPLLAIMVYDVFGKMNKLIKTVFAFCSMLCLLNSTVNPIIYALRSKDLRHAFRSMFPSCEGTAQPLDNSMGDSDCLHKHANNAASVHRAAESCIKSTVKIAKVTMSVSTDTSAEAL
compound,measurement,setting,value
CCCCCN1C(=O)/C(=N\NC(=O)CN2CCOCC2)c2ccc(OC)cc21 [Compound 5],CB1 activity,[1],did not show any CB1 functional activity
same,EC50,[2],13.3 nM
CCCCCN1C(=O)/C(=N\NC(=O)CN(C)c2ccc([N+](=O)[O-])c3nonc23)c2ccc(OC)cc21 [Compound 6],staining of CD4+ T cells,[3],stained the CD4^+ T cells
